Like-named read-outs stand apart in the source and are kept apart here.
Columns and labels:
[1] = test system: paddy rice; assay: Test Example 5: Wagner pot test, chemical injury on paddy rice; type: in vivo, paddy rice (Asahi species); note: key: 5: Completely killed; 4: Considerably injured; 3: Moderately injured; 2: A little injured; 1: Slightly injured; 0: Not injured
Experimental: (§1) In a 1/7500 are Wagner pot, sieved paddy field soil (alluvial soil) was charged. Thereafter, in the center portion of the pot, 2 roots of paddy rice (Asahi species) at the 2- to 3-leaf stage were transplanted and 20 seeds of Bulrush per pot were seeded in the surface of the above soil. The pot was submerged at the depth of about 2 cm. The other Dopatrium junceum and umbrella plant were generated naturally. After seeding, when each of the weeds reached the same leaf age as defined in Table 5 given herein, a predetermined concentration of the emulsion prepared according to Example 4 was applied dropwise on the surface of the pot. The test was carried out by repeating the same test three times per area and the results were determined 20 days after the application of the chemicals with regard to the herbicidal effect and chemical injury on paddy rice on the basis of the evaluation index as shown below.
(§2) As the comparative chemicals Molinate, Benthiocarb and DCMU, those commercially available were used.

[2] = test system: Bulrush; assay: Test Example 5: Wagner pot test, herbicidal effect on Bulrush; type: in vivo
Experimental: as §1, §2
(§3) In the above table, the inhibition rate was calculated according to the method as described in Test Example 1.

[3] = test system: paddy rice; assay: Test Example 4: field test in submerged directly seeded paddy field, paddy rice; type: in vivo, paddy rice (Asahi species); settings: Oryza sativa, 504 h; 300 g/10 are, emulsion, 2- to 3-leaf stage, 21 days after application
Experimental: (§4) In a Wagner pot of 1/500 are, paddy field soil (alluvial soil) was placed and 50 seeds of Echinochloa crus-galli var. oryzicola and 30 seeds of paddy rice were seeded in the surface layer of said soil and the submerging depth was kept at about 1 cm. When Echinochloa crus-galli var. oryzicola reached at the one leaf stage and 5-leaf stage, the emulsion of a predetermined concentration, prepared according to Example 4 was added dropwise. After 30 days from the treatment with the chemical, dry weights of Echinochloa crus-galli var. oryzicola and paddy rice were measured and the inhibition rate was calculated with reference to untreated area. [formula]
(§5) In a 10 m^2 paddy field, 30 g of Echinochloa crus-galli var. oryzicola seeds were seeded at the time of puddling and the depth of submerging was kept at 3-5 cm. 3 Days after the puddling, 50 g of paddy rice at the emergence stage (Asahi species) were seeded. When Echinochloa crus-galli var. oryzicola and paddy rice reached a 2- to 3-leaf stage, a predetermined dose of the emulsion prepared according to Example 4 was applied uniformly by means of a manual spraying machine. Test results were examined 21 days after the application of the chemicals in the similar manner as in Test Example 1.
(§6) The comparative chemical 1 used was that commercially available and the comparative chemical 2 used was prepared according to Example 4.

[4] = test system: paddy rice; assay: whole plant or invertebrate; type: in vivo, paddy rice (Asahi species); settings: Oryza sativa, 720 h
Experimental: as §4
(§7) In a concrete pot of 1/400 are (50 cm×50 cm), paddy field soil (alluvial soil) was placed and 200 seeds of Echinochloa crus-galli var. oryzicola were seeded in 10 surface layer of said soil and the soil was submerged at about 3 cm depth. Before emergence of Echinochloa crus-galli var. oryzicola, paddy rice at 2.5-leaf stage (Asahi species) was transplanted at the rate of 8 stubs per pot, planting 3 seedlings per stub. At the one-leaf stage (3.5 leaves stage of paddy rice) and 5 leaves stage (7 leaves stage of paddy rice) of Echinochloa crus-galli var. oryzicola, the granule prepared according to Example 1 was applied. […] 30 Days after the treatment with the chemical, examination was made in the similar manner as Test Example 1 to obtain results as shown in Table 2.
(§8) In the table, as the comparative chemicals CPN, Benthiocarb, Molinate and Simetryne, those commercially available were used and the comparative chemicals A and B (as mentioned before) used were prepared according to the process for preparing the compound of this invention.

[5] = test system: Echinochloa crus-galli var. oryzicola; assay: Test Example 2: concrete pot test on killing effect, Echinochloa crus-galli var. oryzicola; type: in vivo; settings: Echinochloa crus-galli, 720 h
Experimental: as §4, §7, §8

[6] = test system: Umbrella plant; assay: Test Example 5: Wagner pot test, herbicidal effect on umbrella plant; type: in vivo; settings: 20 days after application
Experimental: as §1, §2, §3

[7] = test system: Dopatrium junceum; assay: Test Example 5: Wagner pot test, herbicidal effect on Dopatrium junceum; type: in vivo
Experimental: as §1, §2, §3

[8] = test system: Echinochloa crus-galli var. oryzicola; assay: Test Example 4: field test in submerged directly seeded paddy field, Echinochloa crus-galli var. oryzicola; type: in vivo; settings: Echinochloa crus-galli, 504 h; 300 g/10 are, emulsion, 2- to 3-leaf stage, 21 days after application; read-out: Inhibition (%) of E. crus-galli var. oryzicola
Experimental: as §4, §5, §6

[9] = test system: paddy rice; assay: Test Example 1: pot test on selectivity, inhibition of paddy rice; type: in vivo; settings: for inhibition at 750 g/ha / inhibition at 1500 g/ha / inhibition at 3000 g/ha / inhibition at 6000 g/ha / inhibition at 9000 g/ha: Oryza sativa, 720 h
Experimental: as §4, with “When Echinochloa crus-galli var. oryzicola reached at the one leaf stage and 5-leaf stage, the emulsion of a predetermined concentration, prepared according to Example 4 was added dropwise.” left out
(§9) The comparative chemicals used, i.e. DCMU and Linuron, were those commercially available, and the comparative chemicals A and B used were prepared according to the process for formulating the compound of this invention.

[10] = test system: paddy rice; settings: known upland herbicides; cited from earlier work
[11] = test system: various weeds; settings: known upland herbicides; cited from earlier work
[12] = test system: Echinochloa crus-galli var. oryzicola; assay: Test Example 1: pot test on selectivity, inhibition of Echinochloa crus-galli var. oryzicola; type: in vivo; settings: Echinochloa crus-galli, 720 h
Experimental: as §4, §9

[13] = 300 g/10a, leaf age 3, 20 days after application
[14] = 600 g/10a, leaf age 3, 20 days after application
[15] = read-out: Inhibition (%) by treatment at 1-leaf stage of E. crus-galli var. oryzicola, paddy rice
[16] = read-out: Inhibition (%) by treatment at 5-leaf stage of E. crus-galli var. oryzicola, paddy rice
[17] = read-out: Inhibition (%) by treatment at 1-leaf stage of E. crus-galli var. oryzicola, E. crus-galli var. oryzicola
[18] = read-out: Inhibition (%) by treatment at 5-leaf stage of E. crus-galli var. oryzicola, E. crus-galli var. oryzicola
[19] = read-out: Inhibition (%) by treatment at 1-leaf stage, paddy rice
[20] = read-out: Inhibition (%) by treatment at 5-leaf stage, paddy rice
[21] = read-out: Inhibition (%) by treatment at 1-leaf stage, E. crus-galli var. oryzicola
[22] = read-out: Inhibition (%) by treatment at 5-leaf stage, E. crus-galli var. oryzicola

CCSC(=O)N1CCCCCC1 [Molinate, s-ethyl hexahydro-1H-azepine-1-carbothioate]
Chemical injury on paddy rice ([1]; 300 g/10a, 3 tillers, 20 days after application): 0 | Chemical injury on paddy rice [1, 13]: 0 | Chemical injury on paddy rice ([1]; 600 g/10a, 3 tillers, 20 days after application): 0 | Chemical injury on paddy rice [1, 14]: 0 | Weed kill degree, Bulrush [2, 13]: 0 (less than 39) | Weed kill degree, Bulrush ([2]; 300 g/10a, leaf age 3-5, 20 days after application): 1 (40-59) | Weed kill degree, Bulrush [2, 14]: 5 (100) | Weed kill degree, Bulrush ([2]; 600 g/10a, leaf age 3-5, 20 days after application): 2 (60-79) | inhibition at 3000 g/ha [3]: 12% | inhibition at 1500 g/ha [4, 15]: 0% | inhibition at 3000 g/ha [4, 15]: 8% | inhibition at 9000 g/ha [4, 15]: 36% | inhibition at 1500 g/ha [4, 16]: 0% | inhibition at 3000 g/ha [4, 16]: 0% | inhibition at 9000 g/ha [4, 16]: 8% | inhibition at 1500 g/ha [5, 17]: 86% | inhibition at 3000 g/ha [5, 17]: 100% | inhibition at 9000 g/ha [5, 17]: 100% | inhibition at 1500 g/ha [5, 18]: 0% | inhibition at 3000 g/ha [5, 18]: 13% | inhibition at 9000 g/ha [5, 18]: 31% | Weed kill degree, Umbrella plant ([6]; 300 g/10a, leaf age 2 (first group of columns)): 1 (40-59) | Weed kill degree, Umbrella plant ([6]; 300 g/10a, leaf age 2 (second group of columns)): 4 (90-99) | Weed kill degree, Umbrella plant ([6]; 600 g/10a, leaf age 2 (first group of columns)): 1 (40-59) | Weed kill degree, Umbrella plant ([6]; 600 g/10a, leaf age 2 (second group of columns)): 5 (100) | Weed kill degree, Dopatrium junceum ([7]; 300 g/10a, leaf age 2, 20 days after application): 2 (60-79) | Weed kill degree, Dopatrium junceum [7, 13]: 4 (90-99) | Weed kill degree, Dopatrium junceum ([7]; 600 g/10a, leaf age 2, 20 days after application): 5 (100) | Weed kill degree, Dopatrium junceum [7, 14]: 5 (100) | inhibition at 3000 g/ha [8]: 83%

CON(C)C(=O)Nc1ccc(Cl)c(Cl)c1 [Linuron, 3-(3,4-dichlorophenyl)-1-methoxy-1-methyl urea]
inhibition at 750 g/ha [9, 19]: 81% | inhibition at 1500 g/ha [9, 19]: 100% | inhibition at 3000 g/ha [9, 19]: 100% | inhibition at 6000 g/ha [9, 19]: 100% | inhibition at 9000 g/ha [9, 19]: 100% | inhibition at 750 g/ha [9, 20]: 53% | inhibition at 1500 g/ha [9, 20]: 100% | inhibition at 3000 g/ha [9, 20]: 100% | inhibition at 6000 g/ha [9, 20]: 100% | inhibition at 9000 g/ha [9, 20]: 100% | selectivity between Echinochloa crus-galli var. oryzicola and paddy rice ([9]; in vivo): kill not only Echinochloa crus-galli var. oryzicola but also paddy rice | chemical injury to paddy rice [10]: strong chemical injury to paddy rice | herbicidal activity against various weeds [11]: strong herbicidal activity | inhibition at 750 g/ha [12, 21]: 82% | inhibition at 1500 g/ha [12, 21]: 100% | inhibition at 3000 g/ha [12, 21]: 100% | inhibition at 6000 g/ha [12, 21]: 100% | inhibition at 9000 g/ha [12, 21]: 100% | inhibition at 750 g/ha [12, 22]: 72% | inhibition at 1500 g/ha [12, 22]: 100% | inhibition at 3000 g/ha [12, 22]: 100% | inhibition at 6000 g/ha [12, 22]: 100% | inhibition at 9000 g/ha [12, 22]: 100%
